Results reported in ChEMBL document CHEMBL1201862, “PubChem BioAssay data set” (2004).
The source made the active and inactive calls.

Key:
[1] = biological target: DNA (cytosine-5)-methyltransferase 1 (Homo sapiens, UniProt P26358); assay: inhibition of DNA methylation by DNMT1 – biochemical, fluorescent molecular beacon, confirmation (AID 602386); assay type: functional
[2] = biological target: Induced myeloid leukemia cell differentiation protein Mcl-1 (Homo sapiens, UniProt Q07820); assay: blockers of MCL1 binding to BIM peptide – biochemical, fluorescence polarization, BIM-BH3 peptide, 1536-well, dose response (AID 2217)
Albumin = Albumin (Bos taurus, UniProt P02769); assay: Counterscreen for inhibitors of T-cell receptor (TCR)-CD3 interaction: Fluorescence-based biochemical high throughput dose response assay to identify inhibitors of T-cell receptor (TCR)-CD3 interaction using a TAMRA-labeled BSA probe.; assay type: functional
Genome polyprotein = Genome polyprotein (Hepatitis C virus, UniProt Q2Q167); assay: disruption of hepatitis C core self-association – biochemical, TR-FRET, dose response (AID 2159); set-up: species or system Hepacivirus hominis;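 note: blocks dimerization of HCV core protein measured by TR-FRET between tagged core106 pairs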
[3] = biological target: T1, Small ubiquitin-related modifier 1 (Homo sapiens, UniProt P63165); assay: SUMO1 protein interaction blockers, potency – biochemical, fluorescence polarization, uHTS hits, dose response (AID 624382); assay type: functional; details: read-out: IC50_Mean
Bcl-2-like protein 1 = Bcl-2-like protein 1 (Homo sapiens, UniProt Q07817); assay: blockers of BCLXL peptide binding – biochemical, fluorescence polarization, 1536-well, selectivity assay for MCL1 inhibitor project, dose response (AID 2218)
[4] = biological target: T1, Small ubiquitin-related modifier 1; assay: SUMO1 protein-protein binding blockers, potency – biochemical, FRET, dose response (AID 624383); assay type: functional; details: read-out: IC50_Mean
[5] = biological target: Diphosphomevalonate decarboxylase (Streptococcus pneumoniae serotype 2 (strain D39 / NCTC 7466), UniProt Q9FD53); assay: diphosphomevalonate decarboxylase inhibitor confirmation – biochemical, cuvette format, coupled NADH fluorescence (AID 1028); assay type: functional
Vero = assay: inhibition of WNV-induced cytopathic effect – cell-based, CPE readout (AID 1621); assay type: functional; details: Chlorocebus sabaeus
Danio rerio = assay: In Vivo Angiogenesis Dose-Response Confirmation. [Related pubchem assays: 732 (Assay preceding this confirmatory assay.)]; assay type: functional, organism-based
[6] = biological target: Sphingosine 1-phosphate receptor 2 (Homo sapiens, UniProt O95136); assay: Dose Response Cell Based Assay for Antagonists of the S1P2 Receptor. [Related pubchem assays: 856, 736 ]; assay type: functional
Protein RecA = biological target: T2, Protein RecA (Mycobacterium tuberculosis, UniProt P9WHJ3); assay: Fluorescence Cell-Free Homogeneous Dose Retest to Identify Inhibitors of RecA-Intein Splicing Activity. [Related pubchem assays (depositor defined):AID2097, AID2223, AID489010, AID492950]; assay type: functional
T2 sequence (P9WHJ3 whole entry): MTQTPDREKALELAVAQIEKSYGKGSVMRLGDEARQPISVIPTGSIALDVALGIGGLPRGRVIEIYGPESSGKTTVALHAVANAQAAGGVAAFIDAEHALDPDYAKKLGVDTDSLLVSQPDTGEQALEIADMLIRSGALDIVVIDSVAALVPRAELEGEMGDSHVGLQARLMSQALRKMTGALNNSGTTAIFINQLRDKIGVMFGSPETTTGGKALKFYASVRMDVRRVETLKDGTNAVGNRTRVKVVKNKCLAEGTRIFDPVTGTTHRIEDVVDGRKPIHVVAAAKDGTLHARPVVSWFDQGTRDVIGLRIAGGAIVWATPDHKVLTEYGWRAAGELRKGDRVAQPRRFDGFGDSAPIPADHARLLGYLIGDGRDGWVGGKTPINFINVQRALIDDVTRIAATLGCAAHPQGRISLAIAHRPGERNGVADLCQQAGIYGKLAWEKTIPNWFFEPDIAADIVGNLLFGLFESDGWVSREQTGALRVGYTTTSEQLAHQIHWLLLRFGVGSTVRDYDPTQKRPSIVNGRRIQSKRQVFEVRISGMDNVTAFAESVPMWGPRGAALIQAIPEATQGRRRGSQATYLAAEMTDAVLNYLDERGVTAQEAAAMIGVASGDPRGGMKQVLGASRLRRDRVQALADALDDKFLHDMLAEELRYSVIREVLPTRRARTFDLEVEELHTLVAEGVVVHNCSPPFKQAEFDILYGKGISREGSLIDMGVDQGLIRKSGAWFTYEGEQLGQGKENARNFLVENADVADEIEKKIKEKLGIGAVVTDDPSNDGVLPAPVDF

HT-1080 = assay: HT1080 cell viability loss – fluorescence readout (AID 620); assay type: functional, cell-based; details: Homo sapiens
[7] = biological target: T3, Sphingosine 1-phosphate receptor 4 (Homo sapiens, UniProt O95977); assay: Fluorescence dose response cell-based high throughput screening assay for antagonists of the Sphingosine 1-Phosphate Receptor 4 (S1P4). [Related pubchem assays: 1524 (Confirmation in triplicates.), 1510 (Primary screen.)]; assay type: functional
T3 sequence (O95977 whole entry): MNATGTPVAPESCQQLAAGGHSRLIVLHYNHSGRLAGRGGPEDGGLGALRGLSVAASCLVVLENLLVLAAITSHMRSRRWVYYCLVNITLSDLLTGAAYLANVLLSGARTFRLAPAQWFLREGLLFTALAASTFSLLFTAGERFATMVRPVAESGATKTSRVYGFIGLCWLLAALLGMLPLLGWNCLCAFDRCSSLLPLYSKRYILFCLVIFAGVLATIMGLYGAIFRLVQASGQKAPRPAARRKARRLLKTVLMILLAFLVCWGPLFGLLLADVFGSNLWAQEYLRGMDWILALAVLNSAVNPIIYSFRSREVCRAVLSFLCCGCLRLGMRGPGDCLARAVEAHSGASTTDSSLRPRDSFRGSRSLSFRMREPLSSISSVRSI

[8] = biological target: Luciferin 4-monooxygenase (Photinus pyralis, UniProt P08659); assay: Counter Screen for Luciferase-based Assay Positives. [Related pubchem assays: 620, 618, 411 ]
[9] = biological target: T4, Replicative DNA helicase DnaB (Mycobacterium tuberculosis, UniProt P9WMR3); assay: DnaB intein splicing inhibitors, dose response, biochemical, cell-free fluorescence (AID 449749); assay type: functional
T4 sequence (P9WMR3 whole entry): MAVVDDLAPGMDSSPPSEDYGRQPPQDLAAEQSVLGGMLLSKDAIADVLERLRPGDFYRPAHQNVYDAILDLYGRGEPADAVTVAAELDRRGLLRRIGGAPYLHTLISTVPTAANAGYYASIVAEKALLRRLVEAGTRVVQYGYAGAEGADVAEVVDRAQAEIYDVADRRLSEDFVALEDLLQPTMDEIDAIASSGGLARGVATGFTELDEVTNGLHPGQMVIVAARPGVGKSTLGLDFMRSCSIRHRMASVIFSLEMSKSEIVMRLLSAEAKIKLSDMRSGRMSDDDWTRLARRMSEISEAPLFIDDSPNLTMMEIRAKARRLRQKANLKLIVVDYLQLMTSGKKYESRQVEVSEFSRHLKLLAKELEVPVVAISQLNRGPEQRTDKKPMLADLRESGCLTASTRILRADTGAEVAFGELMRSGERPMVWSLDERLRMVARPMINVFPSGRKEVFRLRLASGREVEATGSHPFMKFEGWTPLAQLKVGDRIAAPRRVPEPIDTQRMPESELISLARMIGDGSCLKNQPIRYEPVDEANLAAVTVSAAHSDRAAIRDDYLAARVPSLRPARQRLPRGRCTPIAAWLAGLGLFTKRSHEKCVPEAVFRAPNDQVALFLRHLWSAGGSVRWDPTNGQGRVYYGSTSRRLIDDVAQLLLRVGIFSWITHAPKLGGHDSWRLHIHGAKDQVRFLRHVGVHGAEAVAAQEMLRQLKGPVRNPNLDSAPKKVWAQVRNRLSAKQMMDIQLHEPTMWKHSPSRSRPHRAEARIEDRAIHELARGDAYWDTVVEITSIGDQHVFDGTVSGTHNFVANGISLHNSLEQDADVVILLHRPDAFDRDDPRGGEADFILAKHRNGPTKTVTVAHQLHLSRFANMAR

[10] = biological target: Sphingosine 1-phosphate receptor 1 (Homo sapiens, UniProt P21453); assay type: functional;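 note: Tango beta-arrestin reporter U2OS cells stimulated with S1P near its EC80; inhibitor potency meaning antagonism of receptor activation by the natural agonist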
[11] = biological target: T3, Sphingosine 1-phosphate receptor 4; assay: Late stage fluorescence dose response cell-based screening assay for antagonists of the Sphingosine 1-Phosphate Receptor 4 (S1P4). [Related pubchem assays: 1524 (Confirmation screen (S1P4 antagonists).), 1510 (Primary screen (S1P4 antagonists).), 1853 (Summary AID (S1P4 antagonists).), 1692 (Dose response screen (S1P4 antagonists).)]; assay type: functional
[12] = M. tuberculosis growth inhibition, HTS (AID 449762); assay type: functional
[13] = THP-1 cell cytotoxicity, dose response, cytotoxicity control for non-replicating M. tuberculosis project (AID 489025); assay type: functional
[14] = biological target: T5, Eukaryotic translation initiation factor 2-alpha kinase 3 (Homo sapiens, UniProt Q9NZJ5); assay: Dose response cell-based high-throughput screening assay to measure PERK inhibition. [Related pubchem assays: 1416 ]; assay type: functional
T5 sequence (Q9NZJ5 whole entry): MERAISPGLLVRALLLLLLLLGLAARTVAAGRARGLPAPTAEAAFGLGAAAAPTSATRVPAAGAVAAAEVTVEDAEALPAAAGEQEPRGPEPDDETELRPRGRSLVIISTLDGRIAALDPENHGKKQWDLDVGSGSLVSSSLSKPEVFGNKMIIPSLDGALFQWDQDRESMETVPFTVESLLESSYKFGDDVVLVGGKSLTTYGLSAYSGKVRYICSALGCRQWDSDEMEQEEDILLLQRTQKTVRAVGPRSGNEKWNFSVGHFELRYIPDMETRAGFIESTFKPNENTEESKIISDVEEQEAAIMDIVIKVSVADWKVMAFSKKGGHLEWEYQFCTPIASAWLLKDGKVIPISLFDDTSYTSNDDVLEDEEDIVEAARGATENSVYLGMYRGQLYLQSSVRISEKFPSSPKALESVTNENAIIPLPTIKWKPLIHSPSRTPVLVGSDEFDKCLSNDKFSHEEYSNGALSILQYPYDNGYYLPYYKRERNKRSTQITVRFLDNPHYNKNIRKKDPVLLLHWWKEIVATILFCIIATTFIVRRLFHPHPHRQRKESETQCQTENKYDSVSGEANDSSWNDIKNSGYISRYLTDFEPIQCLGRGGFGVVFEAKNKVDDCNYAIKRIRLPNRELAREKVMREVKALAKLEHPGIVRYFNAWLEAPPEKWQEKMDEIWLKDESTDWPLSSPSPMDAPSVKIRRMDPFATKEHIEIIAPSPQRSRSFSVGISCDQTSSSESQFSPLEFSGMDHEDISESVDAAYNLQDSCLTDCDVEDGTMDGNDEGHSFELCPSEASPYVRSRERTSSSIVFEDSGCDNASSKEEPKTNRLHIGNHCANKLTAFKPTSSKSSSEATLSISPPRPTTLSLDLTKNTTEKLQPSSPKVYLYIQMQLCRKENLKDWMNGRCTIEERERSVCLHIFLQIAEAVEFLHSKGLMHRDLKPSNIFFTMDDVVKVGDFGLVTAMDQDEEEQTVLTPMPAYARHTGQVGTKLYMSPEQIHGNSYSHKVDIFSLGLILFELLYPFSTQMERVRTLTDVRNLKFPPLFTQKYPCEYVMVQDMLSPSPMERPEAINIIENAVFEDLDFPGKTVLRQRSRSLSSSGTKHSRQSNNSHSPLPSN

[15] = biological target: T5, Eukaryotic translation initiation factor 2-alpha kinase 3; assay: Counterscreen assay for PERK inhibitors: Dose response cell-based high throughput screening assay to measure inhibition of PERK at 6 hours. [Related pubchem assays: 1522, 1416 ]; assay type: functional

T1 sequence (P63165 whole entry): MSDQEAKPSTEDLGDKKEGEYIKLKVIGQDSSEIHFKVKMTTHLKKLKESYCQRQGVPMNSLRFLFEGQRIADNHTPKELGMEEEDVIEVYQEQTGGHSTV
Bcl-2-like protein 1, sequence (Q07817 whole entry): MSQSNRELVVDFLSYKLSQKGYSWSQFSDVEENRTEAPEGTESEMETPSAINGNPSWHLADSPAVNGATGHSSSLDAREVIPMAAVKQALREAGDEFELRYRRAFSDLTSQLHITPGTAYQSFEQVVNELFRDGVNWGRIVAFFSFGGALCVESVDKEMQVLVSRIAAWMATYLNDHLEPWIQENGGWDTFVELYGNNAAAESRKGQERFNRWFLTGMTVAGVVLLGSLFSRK
Genome polyprotein, sequence (Q2Q167 whole entry): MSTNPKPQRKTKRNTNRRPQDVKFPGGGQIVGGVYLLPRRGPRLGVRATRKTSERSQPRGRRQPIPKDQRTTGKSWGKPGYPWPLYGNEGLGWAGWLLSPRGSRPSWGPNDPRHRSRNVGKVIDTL
Diphosphomevalonate decarboxylase, sequence (Q9FD53 whole entry): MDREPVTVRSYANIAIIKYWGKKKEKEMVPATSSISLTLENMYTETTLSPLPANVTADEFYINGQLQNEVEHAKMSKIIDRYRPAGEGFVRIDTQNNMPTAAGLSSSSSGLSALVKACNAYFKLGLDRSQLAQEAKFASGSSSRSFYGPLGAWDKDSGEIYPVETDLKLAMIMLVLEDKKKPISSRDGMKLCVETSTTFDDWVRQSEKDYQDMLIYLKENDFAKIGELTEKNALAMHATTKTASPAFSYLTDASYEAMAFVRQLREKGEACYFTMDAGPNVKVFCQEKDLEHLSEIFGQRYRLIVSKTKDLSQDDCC
Induced myeloid leukemia cell differentiation protein Mcl-1, sequence (Q07820 whole entry): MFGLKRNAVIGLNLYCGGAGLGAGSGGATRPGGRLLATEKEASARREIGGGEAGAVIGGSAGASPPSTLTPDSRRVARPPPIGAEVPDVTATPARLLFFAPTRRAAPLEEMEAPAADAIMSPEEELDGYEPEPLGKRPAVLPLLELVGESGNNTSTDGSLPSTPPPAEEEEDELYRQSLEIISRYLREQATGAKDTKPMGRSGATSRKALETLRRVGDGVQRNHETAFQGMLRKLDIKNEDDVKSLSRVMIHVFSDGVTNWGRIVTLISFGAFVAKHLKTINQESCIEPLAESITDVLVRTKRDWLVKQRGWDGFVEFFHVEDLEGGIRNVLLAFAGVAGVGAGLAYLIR
DNA (cytosine-5)-methyltransferase 1, sequence (P26358 whole entry): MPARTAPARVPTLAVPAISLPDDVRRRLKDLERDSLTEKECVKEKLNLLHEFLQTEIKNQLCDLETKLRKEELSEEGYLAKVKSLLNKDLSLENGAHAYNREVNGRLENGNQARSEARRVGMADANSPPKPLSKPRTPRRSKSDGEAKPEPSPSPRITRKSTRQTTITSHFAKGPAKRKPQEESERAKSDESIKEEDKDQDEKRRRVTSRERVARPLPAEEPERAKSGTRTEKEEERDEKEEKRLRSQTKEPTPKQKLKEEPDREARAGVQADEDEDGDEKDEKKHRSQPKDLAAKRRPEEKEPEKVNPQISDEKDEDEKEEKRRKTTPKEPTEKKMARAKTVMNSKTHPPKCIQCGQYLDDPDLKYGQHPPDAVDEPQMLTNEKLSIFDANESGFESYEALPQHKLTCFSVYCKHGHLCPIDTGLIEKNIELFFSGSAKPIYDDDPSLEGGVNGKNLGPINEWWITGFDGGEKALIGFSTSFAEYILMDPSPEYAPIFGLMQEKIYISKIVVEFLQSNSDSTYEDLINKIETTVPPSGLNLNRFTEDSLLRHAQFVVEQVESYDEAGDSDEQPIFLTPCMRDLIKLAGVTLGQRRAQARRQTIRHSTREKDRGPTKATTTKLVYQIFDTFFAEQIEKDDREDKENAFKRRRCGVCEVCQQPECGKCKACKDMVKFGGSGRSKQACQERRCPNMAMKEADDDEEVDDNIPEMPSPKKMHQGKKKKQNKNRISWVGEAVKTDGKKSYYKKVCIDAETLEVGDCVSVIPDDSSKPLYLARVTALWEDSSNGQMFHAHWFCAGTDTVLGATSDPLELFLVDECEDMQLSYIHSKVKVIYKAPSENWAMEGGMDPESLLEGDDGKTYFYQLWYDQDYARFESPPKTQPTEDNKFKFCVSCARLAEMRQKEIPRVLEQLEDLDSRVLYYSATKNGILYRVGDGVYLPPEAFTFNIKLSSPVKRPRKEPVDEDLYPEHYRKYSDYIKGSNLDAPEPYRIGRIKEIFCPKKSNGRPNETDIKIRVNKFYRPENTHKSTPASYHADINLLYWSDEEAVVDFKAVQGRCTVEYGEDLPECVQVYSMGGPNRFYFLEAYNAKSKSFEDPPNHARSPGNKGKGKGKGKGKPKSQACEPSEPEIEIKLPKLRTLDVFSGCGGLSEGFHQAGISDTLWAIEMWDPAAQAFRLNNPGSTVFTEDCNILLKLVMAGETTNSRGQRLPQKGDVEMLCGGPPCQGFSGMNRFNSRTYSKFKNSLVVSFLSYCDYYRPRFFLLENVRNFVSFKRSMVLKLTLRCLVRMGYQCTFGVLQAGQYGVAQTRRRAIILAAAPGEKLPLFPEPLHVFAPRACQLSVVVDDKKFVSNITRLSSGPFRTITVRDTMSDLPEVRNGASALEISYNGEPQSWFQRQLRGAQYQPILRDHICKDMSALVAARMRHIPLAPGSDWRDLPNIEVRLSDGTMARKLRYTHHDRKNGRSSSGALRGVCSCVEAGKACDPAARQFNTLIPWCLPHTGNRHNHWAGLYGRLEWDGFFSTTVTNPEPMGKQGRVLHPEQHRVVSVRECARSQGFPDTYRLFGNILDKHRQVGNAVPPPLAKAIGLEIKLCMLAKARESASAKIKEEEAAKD
Luciferin 4-monooxygenase, sequence (P08659 whole entry): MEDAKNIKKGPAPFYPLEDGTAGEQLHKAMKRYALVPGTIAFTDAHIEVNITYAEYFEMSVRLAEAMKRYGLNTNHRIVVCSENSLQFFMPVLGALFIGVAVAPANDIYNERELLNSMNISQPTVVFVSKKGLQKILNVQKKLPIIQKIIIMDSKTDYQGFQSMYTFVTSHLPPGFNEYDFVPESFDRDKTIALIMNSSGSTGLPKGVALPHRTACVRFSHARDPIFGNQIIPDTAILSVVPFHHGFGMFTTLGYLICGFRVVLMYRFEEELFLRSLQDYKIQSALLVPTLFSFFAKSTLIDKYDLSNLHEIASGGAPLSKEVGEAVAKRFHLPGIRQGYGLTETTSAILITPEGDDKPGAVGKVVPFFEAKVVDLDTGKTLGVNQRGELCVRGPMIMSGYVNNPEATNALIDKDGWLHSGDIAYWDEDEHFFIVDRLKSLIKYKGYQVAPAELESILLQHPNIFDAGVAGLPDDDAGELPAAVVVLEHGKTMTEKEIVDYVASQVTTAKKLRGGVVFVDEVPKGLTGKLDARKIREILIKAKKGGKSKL
Sphingosine 1-phosphate receptor 1, sequence (P21453 whole entry): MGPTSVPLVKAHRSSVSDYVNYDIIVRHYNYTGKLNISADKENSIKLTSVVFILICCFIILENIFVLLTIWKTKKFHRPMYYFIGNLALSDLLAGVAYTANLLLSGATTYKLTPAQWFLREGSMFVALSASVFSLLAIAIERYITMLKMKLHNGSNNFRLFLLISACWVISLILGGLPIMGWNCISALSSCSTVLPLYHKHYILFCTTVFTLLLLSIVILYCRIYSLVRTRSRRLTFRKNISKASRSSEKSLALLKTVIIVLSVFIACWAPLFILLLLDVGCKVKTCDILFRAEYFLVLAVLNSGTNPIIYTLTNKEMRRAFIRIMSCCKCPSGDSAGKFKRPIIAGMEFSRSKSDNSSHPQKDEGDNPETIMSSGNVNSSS
Sphingosine 1-phosphate receptor 2, sequence (O95136 whole entry): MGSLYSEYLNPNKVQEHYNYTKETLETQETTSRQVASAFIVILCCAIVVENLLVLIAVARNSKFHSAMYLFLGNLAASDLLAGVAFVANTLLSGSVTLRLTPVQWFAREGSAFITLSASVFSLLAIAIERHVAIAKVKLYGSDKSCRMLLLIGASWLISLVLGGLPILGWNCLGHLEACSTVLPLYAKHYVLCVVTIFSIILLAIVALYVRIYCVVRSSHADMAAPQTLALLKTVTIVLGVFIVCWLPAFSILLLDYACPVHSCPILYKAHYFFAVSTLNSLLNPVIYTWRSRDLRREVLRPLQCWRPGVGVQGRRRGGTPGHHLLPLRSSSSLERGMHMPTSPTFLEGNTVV
Albumin, sequence (P02769 whole entry): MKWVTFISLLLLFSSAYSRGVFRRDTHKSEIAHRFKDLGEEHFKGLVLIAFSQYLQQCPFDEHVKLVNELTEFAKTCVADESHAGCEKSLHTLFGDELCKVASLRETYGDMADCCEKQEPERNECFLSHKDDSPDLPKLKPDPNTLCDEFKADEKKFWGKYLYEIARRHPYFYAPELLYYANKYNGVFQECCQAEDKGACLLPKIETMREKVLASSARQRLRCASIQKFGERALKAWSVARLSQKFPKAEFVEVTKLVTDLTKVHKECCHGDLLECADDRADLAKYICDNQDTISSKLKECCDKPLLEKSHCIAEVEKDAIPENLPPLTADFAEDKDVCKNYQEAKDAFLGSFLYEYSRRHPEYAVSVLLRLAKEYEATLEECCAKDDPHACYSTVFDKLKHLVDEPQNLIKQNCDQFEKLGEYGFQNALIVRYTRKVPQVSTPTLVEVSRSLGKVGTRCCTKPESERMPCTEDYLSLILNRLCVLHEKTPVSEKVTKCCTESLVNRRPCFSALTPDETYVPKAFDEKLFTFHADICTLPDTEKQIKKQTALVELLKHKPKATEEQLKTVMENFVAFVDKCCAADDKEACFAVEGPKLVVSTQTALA

## O=C1COc2ccc(C(=O)COC(=O)/C=C/c3ccc(Br)o3)cc2N1
[1]
  IC50: 12.2 µM (active)
[2]
  IC50: > 4.03 µM (active)
Albumin
  IC50: > 94.1 µM (inactive)
Genome polyprotein
  IC50: > 49.8 µM (not active)
[3]
  IC50: > 66.6 µM (inactive)
Bcl-2-like protein 1
  IC50: > 109 µM (not active)
[4]
  IC50: 4.57 µM (active)

## O=C(c1ccc(-n2sc3ccccc3c2=O)cc1)N1CCCCC1
[5]
  IC50: 14.3 µM (active)

## COc1cc(CNC(C)(C)CO)cc(Br)c1OCc1ccc(Cl)cc1
Vero
  IC50: 19.1 µM (active)

## O=C1Nc2ccccc2/C1=C1/Nc2ccccc2C1=O [INDIRUBIN]
Danio rerio
  IC50: < 0.1 µM (not active)

## COc1ccc(NC(=O)/C(Cl)=C(/Cl)S(=O)(=O)Cc2ccc(C)cc2)cn1
[6]
  IC50: 1.48 µM (active)
Protein RecA
  EC50: 2.71 µM (active)
HT-1080
  EC50: 18.8 µM (active)
[7]
  IC50: 0.564 µM (active)
[8]
  EC50: < 0.2 µM (active)
[9]
  AC50: 4.27 µM (active)
[10]
  IC50: 7.07 µM (active)
[11]
  IC50: 15.4 µM (not active)

## O=Cc1ccc(-c2ccc(Cl)cc2Cl)[nH]1
[12]
  IC50: > 100 µM (active)
[13]
  CC50: > 40 µM (active)
[14]
  EC50: > 55.7 µM (not active)
[15]
  EC50: > 55.7 µM (not active)
